In PMC11790956, “A microscale thermophoresis-based enzymatic RNA methyltransferase assay enables the discovery of DNMT2 inhibitors” (Communications Chemistry, 2025):
pIC50: −log10 of the molar value. “Also recorded” adds a separate entry of the source.

What was measured:
DNMT2 [1] = target: T1, DNMT2 (Homo sapiens, UniProt O14717); assay: DNMT2 enzymatic split aptamer MST assay; type: biochemical
T1 construct: made in house
T1 sequence (O14717 1-391): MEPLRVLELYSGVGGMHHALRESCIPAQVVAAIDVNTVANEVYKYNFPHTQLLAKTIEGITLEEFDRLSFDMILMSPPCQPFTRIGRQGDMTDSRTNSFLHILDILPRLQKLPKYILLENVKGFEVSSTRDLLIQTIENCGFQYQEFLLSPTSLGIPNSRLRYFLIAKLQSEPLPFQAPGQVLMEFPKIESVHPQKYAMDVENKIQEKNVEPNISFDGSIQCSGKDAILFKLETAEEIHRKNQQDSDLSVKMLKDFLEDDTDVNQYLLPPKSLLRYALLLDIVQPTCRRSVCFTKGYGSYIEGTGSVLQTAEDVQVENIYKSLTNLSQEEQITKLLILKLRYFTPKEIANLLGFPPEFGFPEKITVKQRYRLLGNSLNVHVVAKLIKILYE
Protocol: The enzyme kinetics were characterized by calculating the Michaelis-Menten constant (KM or kcat) and inhibitory constants (IC50 resp. KI).
The final drug compound concentration was adjusted to 500 µM for the epigenetic drug library (Fig. 5) resp. 100 µM for the covalent compound library (Fig. 6), and the enzymatic reaction was incubated for 30 min at 25 °C. Subsequently, enzymatic reactions were terminated by the addition of 0.3% SDS, and the product SAH was quantified by the split aptamer MST assay (Figs. 5A, B, 6A).
For MTase assay detection by MST, enzyme reaction mixtures with a total volume of 10 µL per single treatment condition were prepared and incubated for the desired reaction times. Inhibitors were added from corresponding DMSO stocks to a final DMSO concentration of max. 5%. Afterward, reactions were quenched at a given reaction time by the addition of 1 µL sodium dodecyl sulfate (SDS, solution, 3% in water) per 10 µL reaction mixture and mixed well by pipetting. Subsequently, 1 µL of a 10× aptamer-containing detection master mix (200 mM Tris, pH 8.5, 200 mM MgCl2, 3 M NaCl, 10 mM urea, 0.2% Brij, 500 nM aptaSAH1, 500 nM aptaSAH2) was added to the quenched MTase reaction and incubated for 1 h at room temperature. Reaction mixtures were loaded directly to MST capillaries without further purification or sample processing.
MST experiments were carried out in at least technical triplicates using a Monolith NT.115 instrument (NanoTemper Technologies) using Monolith standard capillaries and the blue excitation laser setup. The instrument was calibrated according to the manufacturer’s instructions. General settings were applied for all MST experiments as follows: manual temperature control: 25 °C, fluorescence measurement before MST: 4 s, MST (IR laser) on: 20 s, fluorescence after MST: 2 s, delay: 25 s. The laser power was adjusted to optimize the signal-to-noise ratio and the fluorescence signal. LED and MST power settings were chosen individually for each sample by adjusting the LED power to yield fluorescence signals of at least 300 units (blue laser) or 3000 units (red laser) and the MST power to achieve an appropriate thermophoretic response (standard setting: medium MST power).

DNMT2 [2] = target: T1, DNMT2; assay: DNMT2 fluorescence polarization (FP) FTAD displacement assay; type: binding
Protocol: Fluorescence polarization assays were conducted with a similar sample composition as described for FTAD-MST assays as described previously. Triplicates (50 µL) were prepared in black 96-well half-area plates (Greiner) and measured using a Spark 10 M plate reader (Tecan) equipped with polarization filters coupled to a monochromator setup (FTAD: λex = 480 nm, λem = 530 nm). Polarization values (in mP) were calculated from polarization-specific parallel and orthogonal fluorescence intensities according to the Tecan in-built calculation routine.
Reversibility of alexidine binding to DNMT2 was evaluated with a modified FP-assay setup. Briefly, reaction mixtures containing alexidine were prepared in black 96-well half-area plates, and after FP measurement, the volume of one well (50 µL) was collected and applied to a Zeba™ Spin Desalting Column (7 K MWCO) while 5 µL of a 10x DNMT2 buffer solution (500 mM HEPES, 1.5 M NaCl, 10 mM dithiothreitol (DTT), 1% PEG-8000, 0.5% polysorbate-20, pH 7.4) was placed in the collection tube attached to the SEC column. This procedure separated alexidine and restored the initial composition of the DNMT2 assay solution.
Kinetic FP assays were performed to assess the time-dependent inactivation of DNMT2 treated with covalent inhibitors. Briefly, samples contained 2 µM DNMT2, 100 nM FTAD probe, and 1.3% DMSO in DNMT2 MST buffer. Inhibitors were added from DMSO stocks. Negative inhibition control was performed by mock treatment with DMSO. Reactions were initiated by the addition of the Cpd 11 (adamantanyl-acryloylurea) and monitored for 120 min at 25 °C in a Tecan Spark 10 M plate reader (FTAD: λex = 480 nm, λem = 530 nm) The irreversible inhibition kinetics were analyzed as described previously[35],[36].

DNMT2-tRNA complex = target: T2, DNMT2-tRNA complex (Homo sapiens, UniProt O14717); assay: Electrophoretic mobility shift assay (EMSA) of the DNMT2-tRNA complex; type: binding; settings: 500 µM compound, DNMT2 10 µM, tRNAAsp 5 µM
T2 construct: made in house
T2 sequence (O14717 1-391): T1 sequence (O14717 1-391)
Protocol: We speculated these hits might bind very weakly to the tRNA-DNMT2 interaction site and by this inhibit DNMT2 activity. To test this hypothesis, we performed an electrophoretic mobility shift assay (EMSA) using tRNA^Asp (5 µM) and DNMT2 (10 µM) compared to the tRNA sample in absence of the DNMT2 protein (SI Fig. 4)[33]. […] Subsequently, we treated the DNMT2-tRNA complex with all hit compounds at 500 µM and observed their potential to disrupt the complex.
DNMT2 (10 µM) was mixed with tRNA^Asp (5 µM) and treated with 500 µM of the respective screening hit compound in DNMT2 assay buffer (100 mM Tris-HCl, pH 8, 100 mM NH4OAc, 0.1 mM EDTA, 10 mM MgCl2, 10 mM DTT). Subsequently, reaction samples (each 5 µL) were loaded to a native 10% polyacrylamide gel and separated electrophoretically (1 h, 180 V) in 1x TBE. RNA was stained in situ with 1x GelRed and PAGE analysis was conducted by fluorescence scanning at an excitation wavelength of 532 nm (Amersham Typhoon 9400). Positive control: DNMT2+tRNA (band at high molecular weights); negative control: only tRNA (band at low molecular weights).
SI Figure 4. Electrophore?c mobility shi? assay (EMSA) to inves?gate the inﬂuence of screening hits on the DNMT2-tRNA complex forma?on. D NMT2 (10 µ M ) was mixe d w it h t RNAAsp (5 µM) and treated with 50 0 µM of the respec?ve screening hit compound in DNMT2 assay buﬀer. All reac?on samples (each 5 µL) were loaded to a na?ve 10% polyacr ylamide gel and separated electrophore?cally (1 h, 1 80 V) in 1x TBE. RNA was stained in situ with 1x GelRed and PAGE analysis was conducted by ﬂuorescence scanning at an excita?on wavelength of 532 nm (Amersham Typhoon 9400). Po s i ? ve control: DNMT2+tRNA (band at high molecular weights); nega?ve control: only tRNA (band at low

inhibition at 100 µM (DNMT2 [1]; 100 µM compound, covalent library, 30 min at 25 °C, read-out: DNMT2 inhibition in primary screening): > 90%
pIC50 (DNMT2 [1]; MST-derived, 250 nM DNMT2, 5 µM tRNA, 0.9 µM SAM): 5.39
kinact (DNMT2 [2]; kinetic FP assay, kobs vs. [I], 120 min at 25 °C): 0.00285 s⁻¹
influence on DNMT2-tRNA complex formation (DNMT2-tRNA complex): do not inﬂuence the complex
Structure (SMILES): C=CC(=O)NC(=O)NC12CC3CC(CC(C3)C1)C2 [Cpd 11, 1-(adamantan-1-yl)-3-(prop-2-enoyl)urea]
displacement of FTAD tracer / binding to SAH-binding site (DNMT2 [2]; FP library screening with FTAD tracer): binding to the SAH-binding site; also recorded: displaced the FP-probe FTAD effectively
time dependence of FTAD displacement (DNMT2 [2]; kinetic FP assay): time-dependent DNMT2 inhibition; also recorded: time-dependent displacement of the FTAD FP-tracer
